Laboratory results from US20030083469A1, “Allosteric control of nuclear hormone receptors” (The Salk Institute for Biological Studies, priority 1995, published 2003).

Assays:
Nurrl = molecular target: T1, Nurrl (Mus musculus, UniProt Q06219); test: Transient transfection of full-length Nurrl on NBRE x3 TK-LUC; format: cell-based; conditions: Nurrl alone; 100 nM LG69
T1 construct: an expression vector for full-length mouse Nurrl; expressed in transfected cells; host or cells: CV-1
Experimental: CV-1 cells were grown in Dulbecco's Modified Eagle's medium supplemented with 10% resin-charcoal stripped (Samuels et al., Endocrinology 105:80-85 (1979)) fetal bovine serum, 50 U/ml penicillin G and 50 μg/ml streptomycin sulfate (DMEM-FBS) at 37° C. in 5% CO2. One day prior to transfection, cells were plated to 50-80% confluence using phenol-red free DMEM-FBS. Cells were transfected by lipofection using N-{2-(2,3)-dioleoyloxy)propyl-N,N,N-trimethyl ammonium methyl sulfate} according to the manufacturer's instructions (DOTAP, Boehringer Mannheim). […] Cells were harvested and assayed for luciferase and β-galactosidase activity. All points were performed in triplicate in each experiment and varied by less than 10%. Each experiment was repeated three or more times with similar results.
(§1) Thus, CV-1 cells were tranfected with NBRE×3 TK-LUC (300 ng/10^5 cells) , CMX-βgal (500 ng/10^5 cells), alone or with CMX-Nurrl (100 ng/10^5 cells) and CMX-hRXRα (100 ng/10^5 cells) as indicated in FIG. 7B. Following transfection, cells were treated with or without 100 nM LG69. Normalized luciferase activity was determined and plotted as reporter activity.

[1] = molecular target: T2, Nurrl-RXR heterodimer complex (Homo sapiens, UniProt P19793); test: Transient transfection of full-length Nurrl and RXR on NBRE x3 TK-LUC; format: cell-based, mouse Nurrl, human RXRα
T2 construct: transient transfection analysis of full-length Nurrl and/or RXR; expressed in transfected cells; host or cells: CV-1
Experimental: (§2) One day prior to transfection, cells were plated to 50-80% confluence using phenol-red free DMEM-FBS. Cells were transfected by lipofection using N-{2-(2,3)-dioleoyloxy)propyl-N,N,N-trimethyl ammonium methyl sulfate} according to the manufacturer's instructions (DOTAP, Boehringer Mannheim).
as §1
Using sub-optimal amounts of RXR-expression vector, the CRBPII reporter was compared with a 3-copy NBRE reporter as follows. Cells were transfected as described with respect to FIG. 7B, but with a 5-fold lower amount of CMX-hRXRα (20 ng/10^5 cells). CRBPII TK-LUC (300 ng/10^5 cells) was used where indicated.

T3R-RXR heterodimers = molecular target: T3, T3R-RXR heterodimers (Homo sapiens, UniProt P10828+P19793); test: Transient transfection analysis of T3R-RXR heterodimers (TK-LUC reporter, CV-1 cells); format: cell-based
T3 construct: transient transfection analysis of full-length Nurrl and/or RXR; expressed in transfected cells; host or cells: CV-1
T3 sequence (P10828 1-461): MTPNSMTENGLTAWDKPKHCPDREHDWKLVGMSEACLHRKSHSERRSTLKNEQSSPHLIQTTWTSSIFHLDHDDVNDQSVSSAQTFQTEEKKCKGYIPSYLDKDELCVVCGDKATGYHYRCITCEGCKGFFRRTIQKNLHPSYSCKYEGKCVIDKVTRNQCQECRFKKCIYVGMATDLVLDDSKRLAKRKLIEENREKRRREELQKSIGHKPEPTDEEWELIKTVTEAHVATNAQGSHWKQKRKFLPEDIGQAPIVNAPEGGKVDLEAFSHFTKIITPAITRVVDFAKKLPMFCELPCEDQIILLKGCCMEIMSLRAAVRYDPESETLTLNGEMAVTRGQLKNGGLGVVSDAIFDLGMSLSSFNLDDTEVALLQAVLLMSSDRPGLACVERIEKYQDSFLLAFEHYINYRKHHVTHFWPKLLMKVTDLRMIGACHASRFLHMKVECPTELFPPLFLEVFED
T3 sequence (P19793 1-462): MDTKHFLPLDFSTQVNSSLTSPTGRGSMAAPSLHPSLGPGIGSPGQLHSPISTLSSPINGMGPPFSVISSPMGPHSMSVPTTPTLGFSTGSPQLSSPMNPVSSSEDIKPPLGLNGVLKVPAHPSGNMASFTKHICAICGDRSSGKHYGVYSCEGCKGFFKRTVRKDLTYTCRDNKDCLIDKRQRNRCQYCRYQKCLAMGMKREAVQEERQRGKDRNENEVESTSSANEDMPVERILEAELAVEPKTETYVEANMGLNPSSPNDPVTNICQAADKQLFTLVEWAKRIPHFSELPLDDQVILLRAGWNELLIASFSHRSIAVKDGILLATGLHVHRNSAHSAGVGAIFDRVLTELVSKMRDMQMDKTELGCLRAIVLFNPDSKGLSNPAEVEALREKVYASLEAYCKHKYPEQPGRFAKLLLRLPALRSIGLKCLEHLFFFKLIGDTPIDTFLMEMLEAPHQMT
Experimental: as §2
Since T3R and RAR function as heterodimers with RXR, RXR responsiveness was examined in the context of RXR-T3R and RXR-RAR heterodimers. Attention is directed to FIG. 2, wherein transient transfection analysis of T^3R-RXR and RAR-RXR heterodimers is described. Reporter constructs employed contain the HRE indicated in the figure, cloned upstream of the TK-LUC reporter. In the left panel of the figure, CV-1 cells were transfected with the following plasmids: HRE×2 - TK-LUC (300 ng/10^5 cells), CMX-hT3Rβ (20 ng/10^5 cells), CMX-hRXRα (20 ng/10^5 cells) and the internal control CMX-βgal (500 ng/10^5 cells) .

T2 sequence (Q06219 whole entry partner, one chain of several): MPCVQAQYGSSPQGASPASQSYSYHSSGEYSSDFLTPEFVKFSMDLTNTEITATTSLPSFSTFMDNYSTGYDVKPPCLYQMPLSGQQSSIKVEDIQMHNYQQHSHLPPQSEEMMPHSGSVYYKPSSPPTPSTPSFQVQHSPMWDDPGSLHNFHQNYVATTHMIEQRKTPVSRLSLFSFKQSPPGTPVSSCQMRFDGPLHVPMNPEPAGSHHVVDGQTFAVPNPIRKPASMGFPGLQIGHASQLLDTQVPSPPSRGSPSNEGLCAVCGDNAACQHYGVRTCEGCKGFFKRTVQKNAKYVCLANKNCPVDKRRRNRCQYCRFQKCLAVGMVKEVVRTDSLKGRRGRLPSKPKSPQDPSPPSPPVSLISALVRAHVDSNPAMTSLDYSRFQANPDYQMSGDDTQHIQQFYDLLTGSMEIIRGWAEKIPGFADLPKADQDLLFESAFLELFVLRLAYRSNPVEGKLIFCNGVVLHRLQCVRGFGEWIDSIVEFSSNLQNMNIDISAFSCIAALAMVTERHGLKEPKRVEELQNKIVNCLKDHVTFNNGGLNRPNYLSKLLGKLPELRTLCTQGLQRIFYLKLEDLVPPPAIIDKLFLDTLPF
T1 sequence (Q06219 whole entry): as the sequence (Q06219 whole entry partner, one chain of several) above

With `CC=C(c1ccc(C(=O)O)cc1)c1cc2c(cc1C)C(C)(C)CCC2(C)C` [LG69, 4-{1-(3,5,5,8,8-pentamethyl-5,6,7,8-tetrahydro-2-napthalenyl)-1-propenyl}benzoic acid] the “responsiveness of Nurrl on the NBRE reporter” value (Nurrl) was “not responsive”, the “responsiveness of the Nurrl-RXR complex” value ([1]; Nurrl and RXR co-expressed, NBRE reporter) was “strongly responsive” and the “response of Nurrl-RXR on NBRE reporter” value ([1]; limiting RXR (20 ng/10^5 cells)) was “potent response”. For the same molecule, the “effect of LG69 added to T3 on the response to T3” value (T3R-RXR heterodimers; 100 nM T3+100 nM LG69 versus T3 alone) was “somewhat reduced” and the “responsiveness of transfected cells to ligand (luciferase fold-activation)” value (T3R-RXR heterodimers; CV-1 cells transfected with T3Rβ and RXRα, 100 nM T3 or 100 nM LG69) was “not responsive”.
